This is an account of results in publication PMC10914731, “Homo-BacPROTAC-induced degradation of ClpC1 as a strategy against drug-resistant mycobacteria” (Nature Communications, 2024).

The test system of test [1] is Mycobacterium avium. The test is described as follows: microbe, parasite or virus in culture. The test is classed as cell-based.
Test [2] relates to Salmonella typhimurium. The test is described as follows: MIC ESKAPES panel, Salmonella typhimurium. The test is classed as cell-based. The procedure: Minimum inhibitory concentration (MIC) against ESKAPES panel of Gram positive and Gram negative pathogens (Enterococcus faecium, Staphylococcus aureus, Klebsiella pneumoniae, Acinetobacter baumannii, Pseudomonas aeruginosa, Enterobacter cloacae and Salmonella typhimurium [ESKAPES panel]) were determined at the FNDR by the standard broth dilution method [CLSI, M100]. […] Mueller Hinton broth (MHB) medium was used to grow ESKAPES panel strains. The individual cultures were added as 200 μL (inoculum of 3–7 × 10^5 cfu/ml) to the respective assay plates in each well to all columns, except the media control (200 μL of medium). […] The assay plates were incubated at 37 °C, and the results were noted on the 2nd day as turbidometric readout. The clear wells indicated inhibition of growth, while the turbid wells indicated uninhibited growth.

Test [3] deals with ClpC1 NTD, M. smegmatis ClpC1P1P2 complex (UniProt A0R574+P9WPC9). The test is classed as biochemical. The conditions noted are these: for ClpC1 NTD peak area: replicates 1 and 2; for % Response: two replicates.
Test [4] concerns Mtb Beijing lineage HN878. The test is classed as cell-based, Mycobacterium tuberculosis.
Test [5] concerns the target T1, full-length ClpC1 (Mycolicibacterium smegmatis, UniProt A0R574).
T1 construct: We also analyzed whether full-length ClpC1 would be degraded in this assay; made in house
The test is described as follows: Cell-free degradation of full-length ClpC1 (WES, SDS-PAGE). The test is classed as biochemical, M. smegmatis. The note with it: WES / SYPRO Ruby SDS-PAGE, result in words. From the text:
We also analyzed whether full-length ClpC1 would be degraded in this assay, by analyzing the stability of the full-length form monitored by a ClpC1-N-terminal antibody in the WES assays, or directly by SYPRO^TM Ruby stained SDS-PAGE gels in the presence or absence of ClpC1-NTD as additional substrate. The Homo-BacPROTACs tested induced no or only minor degradation of the full-length ClpC1 under these in vitro conditions (Fig. 4e). Whether this is due to hexamer formation stabilizing ClpC1 protomers or missing cofactor(s) of the protease complex, is currently unclear. Likewise, the exact sequential and structural features of native substrates targeted by ClpC1 are not known, except that partially disordered peptide segments can promote degradation.
For SDS-PAGE experiments, reaction samples were treated with 2.7 µl 4x Roti Load 1 (Roth #K929.1), instead of adding sample buffer and fluorescent mastermix, and incubated at 95 °C for 5 min. […] The PageRuler Prestained Protein Ladder (Thermo Scientific #26616) was used as a marker. […]

Test [6] concerns Mtb H37Rv. The note with it: combination with bedaquiline; cited from earlier work.
The mark [7] stands for this setting: Experiment 1, read-out: MIC Mycobacterium avium.
Where [8] appears, read: Experiment 2, three replicate columns.
The mark [9] stands for this setting: Experiment 2, three replicate columns, read-out: MIC (µM) Mycobacterium avium.
Where [10] appears, read: Mycobacterium avium, Experiment 1, read-out: MIC Mycobacterium avium.
Where [11] appears, read: Mycobacterium avium, Experiment 2, three replicate columns, read-out: MIC (µM) Mycobacterium avium.
[12] abbreviates: Mycobacterium avium, Experiment 2, three replicate columns, read-out: MIC (µg/ml) Mycobacterium avium.
The mark [13] stands for this setting: Mycobacterium avium, mean ± SD, read-out: MIC Mycobacterium avium.
[14] abbreviates: Gram-Negative Bacteria, replicates 1-3.
[15] abbreviates: Salmonella enterica, TYPHIMURIUM, Gram negative, n = 3 well replicates.
The mark [16] stands for this setting: Salmonella enterica, TYPHIMURIUM, Gram-Negative Bacteria, replicates 1-3.

≈ marks a conversion by molar mass, not a printed value. Where “and” joins values, the source holds several entries; their conditions need not be identical. Equal values may be shown once. Read-outs that look alike come from different tables or passages of the source. *1 amine or outer side, *2 acyl side, *3 side chain or, on linkers, in order; H or OH if unused. Where a SMILES comes first, the peptide text is derived from it. [ ]: non-standard residue; d: D form. X1 = C#CCn1cc(C[C@H](N[*:1])C(=O)[*:2])c2ccccc21; NMeLeu(5-OH,4R) = CN[C@@H](C[C@@H](C)CO)C(=O)O; Phe(βR-OMe) = CO[C@H](c1ccccc1)[C@H](N)C(=O)O; Trp(1-Me) = Cn1cc(C[C@H](N)C(=O)O)c2ccccc21; NMeL = CN[C@@H](CC(C)C)C(=O)O; Pra = C#CC[C@H](N)C(=O)O

Chain of ClpC1 NTD, M. smegmatis ClpC1P1P2 complex (P9WPC9 1-156, looked up, natural form): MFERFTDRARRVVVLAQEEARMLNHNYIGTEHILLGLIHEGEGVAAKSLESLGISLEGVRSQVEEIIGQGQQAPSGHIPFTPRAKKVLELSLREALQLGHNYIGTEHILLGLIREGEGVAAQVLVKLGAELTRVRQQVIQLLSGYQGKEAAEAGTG
Chain of ClpC1 NTD, M. smegmatis ClpC1P1P2 complex (A0R574 whole entry): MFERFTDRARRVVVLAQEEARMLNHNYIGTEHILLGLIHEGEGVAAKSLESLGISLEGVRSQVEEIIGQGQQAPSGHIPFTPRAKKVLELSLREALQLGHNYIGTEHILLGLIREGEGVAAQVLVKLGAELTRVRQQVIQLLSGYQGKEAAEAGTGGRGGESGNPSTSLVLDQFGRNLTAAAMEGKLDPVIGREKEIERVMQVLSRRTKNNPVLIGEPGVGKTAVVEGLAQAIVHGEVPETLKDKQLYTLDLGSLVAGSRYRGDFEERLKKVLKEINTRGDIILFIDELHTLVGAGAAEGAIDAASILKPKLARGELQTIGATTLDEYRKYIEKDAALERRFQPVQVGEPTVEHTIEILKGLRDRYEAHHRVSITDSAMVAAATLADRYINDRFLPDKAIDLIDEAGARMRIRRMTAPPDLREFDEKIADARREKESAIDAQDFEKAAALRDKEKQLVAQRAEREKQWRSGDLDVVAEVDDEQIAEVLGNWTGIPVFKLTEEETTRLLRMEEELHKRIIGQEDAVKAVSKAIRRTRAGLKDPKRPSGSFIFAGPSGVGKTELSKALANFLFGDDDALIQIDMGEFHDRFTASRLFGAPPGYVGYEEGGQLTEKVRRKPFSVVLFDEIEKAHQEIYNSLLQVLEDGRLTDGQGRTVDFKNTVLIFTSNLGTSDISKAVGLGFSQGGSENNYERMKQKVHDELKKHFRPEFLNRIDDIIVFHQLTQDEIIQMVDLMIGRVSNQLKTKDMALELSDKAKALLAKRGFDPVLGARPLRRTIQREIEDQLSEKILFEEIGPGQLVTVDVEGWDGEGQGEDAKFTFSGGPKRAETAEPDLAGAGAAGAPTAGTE
T1 sequence (A0R574 whole entry): as above

Consider `C#CCn1cc(C[C@@H]2NC(=O)[C@H](C(C)C)NC(=O)[C@H](CC(C)C)N(C)C(=O)[C@H](C(C)C)NC(=O)[C@H]([C@H](OC)c3ccccc3)NC(=O)[C@H](C)NC(=O)[C@H](C[C@@H](C)CO)N(C)C2=O)c2ccccc21` [Compound 5] (cyclo(A[Phe(βR-OMe)]V[NMeL]V[X1][NMeLeu(5-OH,4R)])), for which the MIC in test [1] (setting [7]) worked out at 6.3 µM; in test [1] (setting [9]), 6.25 µM; in test [1] (setting [10]) it was 5.9 µg/mL; in test [1] (setting [11]) it was 6.25 µM; in test [1] (setting [12]), 5.88 µg/mL; in test [1] (setting [13]), 6.3 µM. For the same compound, the MIC was greater than 50 µM in test [2] (setting [14]), greater than 50 µM in test [2] (setting [15]) and greater than 47 µg/mL in test [2] (setting [16]). For the same compound, the “MIC (µg/ml) Mycobacterium avium” value in test [1] (setting [8]) was found to be 5.88 µg/mL (≈ 6.25 µM).
With `COC(c1ccccc1)C1NC(=O)C(C)NC(=O)C(CC(C)CO)N(C)C(=O)C(Cc2cn(Cc3cn(CCOCCOCCOCCOCCn4cc(Cn5cc(CC6NC(=O)C(C(C)C)NC(=O)C(CC(C)C)N(C)C(=O)C(C(C)C)NC(=O)C(C(OC)c7ccccc7)NC(=O)C(C)NC(=O)C(CC(C)CO)N(C)C6=O)c6ccccc65)nn4)nn3)c3ccccc23)NC(=O)C(C(C)C)NC(=O)C(CC(C)C)N(C)C(=O)C(C(C)C)NC1=O` (stereo not shown) [Compound 8], the “ClpC1 NTD peak area” value in test [3] (8 µM compound, time 0 min) was 331639 and 301583; in test [3] (8 µM compound, time 45 min) it was 314553 and 280109; in test [3] (8 µM compound, time 90 min), 285641 and 244656; in test [3] (8 µM compound, time 150 min) it was 191892; in test [3] (8 µM compound, time 240 min), 311145 and 177822; in test [3] (8 µM compound, time 360 min), 222125 and 221356. Moreover, the “ClpC1 NTD peak area” value is 810154 and 722357 in test [3] (33 µM compound, time 0 min); 641074 and 448402 in test [3] (33 µM compound, time 45 min); 173883 and 214990 in test [3] (33 µM compound, time 90 min); 175010 and 133678 in test [3] (33 µM compound, time 150 min); 91238.1 and 172941 in test [3] (33 µM compound, time 240 min); 204242 and 62562.1 in test [3] (33 µM compound, time 360 min). The “% Response” value in test [3] (8 µM compound, time 0 min) is 94.5282% and 100.62%; in test [3] (8 µM compound, time 45 min) it was 83.982% and 77.683%; in test [3] (8 µM compound, time 90 min) it was 56.6216% and 52.7782%; in test [3] (8 µM compound, time 150 min), 43.2573%; in test [3] (8 µM compound, time 240 min), 45.4516% and 26.6563%; in test [3] (8 µM compound, time 360 min), 26.4436% and 30.03%. The “% Response” value in test [3] (33 µM compound, time 0 min) was 102.812% and 94.7011%; in test [3] (33 µM compound, time 45 min) it was 59.8432% and 44.7396%; in test [3] (33 µM compound, time 90 min), 14.8318% and 19.2596%; in test [3] (33 µM compound, time 150 min) it was 13.2219% and 10.0521%; in test [3] (33 µM compound, time 240 min), 6.759% and 11.5705%; in test [3] (33 µM compound, time 360 min), 8.812% and 3.58%. Besides, the “inhibition of bacterial growth, Mtb Beijing strain HN878” value in test [4] (compared to the matching monomers, result in words) was “more efficient inhibition of bacterial”. The MIC in test [1] (Experiment 1, listed as 8 (UdSBI-0545), read-out: MIC Mycobacterium avium) is greater than 50 µM; in test [1] (setting [9]), greater than 50 µM; in test [1] (setting [10]) it was greater than 109 µg/mL; in test [1] (setting [11]), greater than 50 µM; in test [1] (setting [12]), greater than 109 µg/mL; in test [1] (setting [13]), greater than 50 µM. In addition, the MIC in test [2] (Gram-Negative Bacteria, replicates 1-3, listed as 8 (UdSBI-0545)) was greater than 50 µM; in test [2] (setting [15]) it was greater than 50 µM; in test [2] (setting [16]) it was greater than 109 µg/mL. The “MIC (µg/ml) Mycobacterium avium” value in test [1] (setting [8]) is greater than 108.53 µg/mL. Moreover, in test [5], the “degradation of full-length ClpC1” value is listed as “not significantly degraded”.
`C#CC[C@@H]1NC(=O)[C@H](CC(C)C)N(C)C(=O)[C@H](C(C)C)NC(=O)[C@H]([C@H](OC)c2ccccc2)NC(=O)[C@H](C)NC(=O)[C@H](C[C@@H](C)CO)N(C)C(=O)[C@H](Cc2cn(C)c3ccccc23)NC1=O` [Compound 10] (cyclo(A[Phe(βR-OMe)]V[NMeL][Pra][Trp(1-Me)][NMeLeu(5-OH,4R)])): the MIC was 12.5 µM in test [1] (setting [7]); 12.5 µM in test [1] (setting [9]); 11.4 µg/mL in test [1] (setting [10]); 12.5 µM in test [1] (setting [11]); 11.4 µg/mL in test [1] (setting [12]); 12.5 µM in test [1] (setting [13]). For the same compound, the MIC was greater than 50 µM in test [2] (setting [14]), greater than 50 µM in test [2] (setting [15]) and greater than 45.6 µg/mL in test [2] (setting [16]). Also, the “MIC (µg/ml) Mycobacterium avium” value in test [1] (setting [8]) turned out to be 11.41 µg/mL (≈ 12.5 µM).
Consider `COC(c1ccccc1)C1NC(=O)C(C)NC(=O)C(CC(C)CO)N(C)C(=O)C(Cc2cn(C)c3ccccc23)NC(=O)C(Cc2cn(CCCCCn3cc(CC4NC(=O)C(CC(C)C)N(C)C(=O)C(C(C)C)NC(=O)C(C(OC)c5ccccc5)NC(=O)C(C)NC(=O)C(CC(C)CO)N(C)C(=O)C(Cc5cn(C)c6ccccc56)NC4=O)nn3)nn2)NC(=O)C(CC(C)C)N(C)C(=O)C(C(C)C)NC1=O` (stereo not shown) [Compound 12], for which, in test [4], the “inhibition of bacterial growth, Mtb Beijing strain HN878” value is on record as “more efficient inhibition of bacterial”. Also, the MIC in test [1] (Experiment 1, listed as 12 (UdSBI-4377), read-out: MIC Mycobacterium avium) was greater than 50 µM; in test [1] (setting [9]), greater than 50 µM; in test [1] (setting [10]), greater than 99 µg/mL; in test [1] (setting [11]), greater than 50 µM; in test [1] (setting [12]), greater than 99 µg/mL; in test [1] (setting [13]) it was greater than 50 µM. Also, the MIC in test [2] (Gram-Negative Bacteria, replicates 1-3, listed as 12 (UdSBI-4377)) is greater than 50 µM; in test [2] (setting [15]), greater than 50 µM; in test [2] (setting [16]) it was greater than 99 µg/mL. Further, the “MIC (µg/ml) Mycobacterium avium” value in test [1] (setting [8]) is greater than 99.02 µg/mL. In addition, in test [6], the “effect of bedaquiline on activity against Mtb H37Rv” value was “no effect”.
In the case of `COc1c(N2C[C@@H]3CCCN[C@@H]3C2)c(F)cc2c(=O)c(C(=O)O)cn(C3CC3)c12` [Moxifloxacin, reference compound], the “MIC (µg/ml) Mycobacterium avium” value in test [1] (setting [8]) was determined as 1 µg/mL (≈ 2.49 µM). For the same compound, the MIC in test [1] (setting [9]) is 2.49 µM; in test [1] (setting [10]), 2.49 µM and 1 µg/mL; in test [1] (setting [11]) it was 2.49 µM; in test [1] (setting [12]), 1 µg/mL; in test [1] (setting [13]), 2.5 µM; in test [2] (setting [15]), 0.6 µM. The MIC in test [2] (setting [16]) is 0.62 µM and 0.25 µg/mL.
